Reference: US12102685B2, “Immodulator peptides covalently modified with small molecules” (priority 2020, dated 2024)
Peptide text beside a SMILES is read from it.

Columns and labels:
[1] = molecular target: T1, AA111-228 DNA-binding domain of RXR-alpha (RXRa-DBD) (Homo sapiens, UniProt P19793); assay: Binding to RXRa-DBD (x3A); settings: 1 ug/well RXRa-DBD, 800 ng/well SA488-labelled peptide; background subtracted
T1 construct: purchased Abcam, Cambridge, MA
T1 sequence (P19793 111-228): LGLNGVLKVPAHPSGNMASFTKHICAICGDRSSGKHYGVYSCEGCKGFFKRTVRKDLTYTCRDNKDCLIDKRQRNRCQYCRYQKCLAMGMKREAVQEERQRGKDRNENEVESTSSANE
Description: Binding of immodulator peptides to AA111-228 DNA-binding domain of RXR-alpha (RXRa-DBD). 1 ug/well recombinant RXRa-DBD (Abcam, Cambridge, MA) was adsorbed to wells of a 96-well plate for 60 minutes at RT, then blocked with 200 uL 1% BSA in PBS buffer overnight. Plate was washed and 800 ng/well Streptavidin-Alexa 488 conjugate (SA488)-labelled IM peptide was added. The plate was incubated for 60 min at room temperature, washed and counted in a standard fluorometer (excitation/emission 485/525 nm). Background (buffer alone) was subtracted.

[2] = Binding to heparin-agarose spin column (x3D); settings: 1 ug SA488-labelled peptide
Description: 1 ug Streptavidin-Alexa 488 conjugate (SA488)-labelled IM peptide in PBS buffer was loaded on a spin column packed with 0.2 ml bed volume heparin-agarose (G-Biosciences, St. Louis, MO). The column was centrifuged for 2 min at 2,000 G and the flow-through was collected. The column was then washed with 0.3 ml 1% BSA in PBS buffer and the column spin repeated. Flowthrough and wash were pooled and duplicate 20 uL aliquots counted in a standard fluorometer (excitation/emission 485/525 nm). Results are expressed as percentage of input counts that bound the heparin-agarose column, versus flowthrough. Percent counts bound to heparin-agarose resin are shown below. IM3, IM5 and IM6 peptides bind heparin-agarose in this assay.

[3] = FITC-PI(4,5)P2 binding to plate-bound peptide with calcium (x9A)
Description: Immodulator peptides IM1, IM3 and IM5 (400 ng/well) in PBS were bound to streptavidin-coated 96-well plates at room temperature for 60 minutes, in the presence or absence of 500 uM calcium chloride. Each well also received 200 ng cold PPI plus 10 ng FITC-labeled PI(4,5)P2 or PI(4)P1. The tables below show the relative fluorescence (with/without calcium background) expressed as a percentage of the highest binder, FITC-PI(4,5)P2+cold PI(3,5)P2, which was 2,496 fluorescence units. Background binding without calcium was, in all cases, 200-300 fluorescence units.

[4] = system: COL1 in HFF-1 dermal fibroblasts; assay: Collagen-1 ELISA in HFF-1 dermal fibroblasts (x11A); type: cell-based; settings: peptide 2 uM, 72 hour; control (buffer) = 100
Description: Immune modulation functions of immodulator peptides have potential untility in the field of cosmetics. HFF-1 cell line was obtained from American Type Culture Collection (ATCC). Cells were grown in a T-75 flask in DMEM Medium containing 10% fetal bovine serum and penicillin-streptomycin at 37° C. in a humidified, 5% CO2 incubator. Cells ([…], 2,000 cells/well) were plated in a 96-well plate and incubated overnight at 37° C. in a humidified, 5% CO2 incubator. Next day, […] of compounds were added (quadruplicate wells). After 72 hour incubation with the compound, supernatants were collected for Collagen-1 ELISA assay and cell viability was measured in a luminometer after the addition of […] CellTiterGlo reagent (Promega Inc, Madison, WI) as recommended by the manufacturer.
Collagen stimulating activity of immodulator peptides in HFF-1 dermal fibroblasts. Peptides were added to cells at 2 uM. COL1 immunoreactivity was measured in the supernatants of cultured cells by ELISA using a rabbit monoclonal anti-COL1 primary antibody (Abcam, Cambridge, MA). Control (buffer) value of immunoreactivity was set to 100.

[5] = Iron-binding competition assay with labeled IM3 (x2E c); settings: 375 ng/well labeled IM3 plus 10x unlabeled peptide; no competing peptide = 100
Description: (§1) Experiments were conducted by the procedure described above. Ferric iron-charged NTA-coated 96-well plates were used as described. 1 ug/well immodulator peptide complexed to Alexa-488-labeled streptavidin in PBS buffer was added (60 min at room temperature). The plate was washed and counted in a standard fluorometer (excitation/emission: 485/525 nm). The results (fluorescence) show improved iron-binding by the three peptides extended C-terminally by the AVD, (dA)VD, and FVS tripeptides. **p<0.01 vs IM3 control IM3: 200±29; IM4: 45±37**; IM5: 130±77; IM3AVD: 434±29**; IM3dAVD: 418±28**; IM3FVS: 371±33** • (c) Competition assay. The same procedure was used as the preceding experiment, except that 375 ng/well labeled IM3 peptide was used, plus 10× of the indicated unlabeled peptide. ‘No competing peptide’ control value was set to 100. *p<0.05 vs “no peptide” control Competing Peptide/Fluorescence • None: 100±38; IM4: 125±26; IM3: 63±27*; IM5: 40±14*; IM3AVD: 10±28* • (d) Competition assay. The same procedure was used as the preceding experiment, except that labeled IM3AVD peptide was used. **p<0.01 vs “no competing peptide” control • None: 100±9; IM4: 144±44; IM3: 35±16**; IM5: 30±19**; IM3AVD: 9±19** • (e) The same procedure was used as the preceding experiment, except that each peptide was labeled with Alexa-488-labeled streptavidin in PBS buffer and used separately. Binding to IM3 was set to =100. *p<0.05, **p<0.01 vs IM3 control. (Labeled Peptide/Fluorescence) IM1: 1.8±0.4**; IM2: 3.0±1.8**; IM3: 100.0±16.8; IM4: 7.2±1.7*; IM5: 86.7±6.4; IM6: 85.9±14.9; IM3AVD:137.7±11.8*; IM3dAVD:147.4±22.9*; IM3FVS: 101.5±10.5.

[6] = Iron-binding competition assay with labeled IM3AVD (x2E d); settings: labeled IM3AVD plus 10x unlabeled peptide; no competing peptide = 100
Description: as §1

[7] = cold PPI: None, 500 uM calcium chloride

| fluorescence [1] | Percent Flowthrough [2] [%] | Percent retained [2] [%] | Compound | relative fluorescence, FITC-PI(4,5)P2 bound ([3]; cold PPI: 3,4,5-P3, calcium) | relative fluorescence, FITC-PI(4,5)P2 bound ([3]; cold PPI: 3,4-P2, calcium) | relative fluorescence, FITC-PI(4,5)P2 bound ([3]; cold PPI: 3,5-P2, calcium) | relative fluorescence, FITC-PI(4,5)P2 bound ([3]; cold PPI: 3-P1, calcium) | relative fluorescence, FITC-PI(4,5)P2 bound ([3]; cold PPI: 4,5-P2, calcium) | relative fluorescence, FITC-PI(4,5)P2 bound ([3]; cold PPI: 4-P1, calcium) | relative fluorescence, FITC-PI(4,5)P2 bound ([3]; cold PPI: 5-P1, calcium) | relative fluorescence, FITC-PI(4,5)P2 bound [3, 7] | COL1 immunoreactivity in supernatant [4] | fluorescence of labeled IM3 with competing peptide [5] | fluorescence of labeled IM3AVD with competing peptide [6] | fluorescence of the highest binder ([3]; FITC-PI(4,5)P2 + cold PI(3,5)P2, calcium) |
| --- | --- | --- | --- | --- | --- | --- | --- | --- | --- | --- | --- | --- | --- | --- | --- |
| 670±85 | 100.0 | 0 | CSCC[C@H](NC(=O)[C@H](CO)NC(=O)[C@@H](NC(=O)[C@H](CCC(=O)O)NC(=O)[C@H](CS)NC(=O)[C@H](CCC(N)=O)NC(=O)[C@H](CCCNC(=N)N)NC(=O)[C@H](CO)NC(=O)[C@H](Cc1c[nH]cn1)NC(=O)[C@H](Cc1ccc(O)cc1)NC(=O)[C@H](Cc1ccccc1)NC(=O)CNC(=O)[C@H](CC(N)=O)NC(=O)[C@@H](N)CCCCN)[C@@H](C)O)C(=O)N[C@@H](CC(=O)O)C(=O)NCC(=O)N[C@@H](CCC(=O)O)C(=O)N[C@@H](C)C(=O)NCC(=O)N[C@@H](CC(C)C)C(=O)N[C@@H](CS)C(=O)N[C@@H](Cc1c[nH]c2ccccc12)C(=O)O [IM1] (H-KNGFYHSRQCETSMDGEAGLCW-OH; N-terminus and C-terminus assumed) | 0.1 percentage of the highest binder | 1.1 percentage of the highest binder | 4.3 percentage of the highest binder | 3.1 percentage of the highest binder | 0.8 percentage of the highest binder | 1.3 percentage of the highest binder | 0.5 percentage of the highest binder | 1.6 percentage of the highest binder | 98 | – | – | – |
| 2±38 | 100.0 | 0 | CSCC[C@H](NC(=O)[C@H](CCCCN)NC(=O)[C@H](CS)NC(=O)[C@H](CCC(N)=O)NC(=O)[C@H](CCCCN)NC(=O)[C@H](CC(C)C)NC(=O)[C@H](CC(N)=O)NC(=O)[C@H](Cc1ccc(O)cc1)NC(=O)[C@H](CC(C)C)NC(=O)CNC(=O)[C@H](Cc1c[nH]cn1)NC(=O)[C@@H](N)CCCCN)C(=O)N[C@@H](CO)C(=O)N[C@@H](CC(C)C)C(=O)N[C@@H](CC(N)=O)C(=O)NCC(=O)N[C@@H](CCC(N)=O)C(=O)N[C@@H](CCCNC(=N)N)C(=O)NCC(=O)N[C@@H](CCC(=O)O)C(=O)N[C@@H](CS)C(=O)N[C@@H](Cc1c[nH]c2ccccc12)C(=O)O [IM2] | – | – | – | – | – | – | – | – | 109 | – | – | – |
| 27±31 | 100.0 | 0 | CC(C)C[C@H](NC(=O)[C@H](C)NC(=O)[C@@H]1CCCN1C(=O)[C@H](Cc1c[nH]cn1)NC(=O)[C@H](CS)NC(=O)[C@H](CCC(N)=O)NC(=O)[C@H](CCCCN)NC(=O)[C@@H]1CCCN1C(=O)[C@H](Cc1c[nH]cn1)NC(=O)[C@H](Cc1ccccc1)NC(=O)[C@H](CC(N)=O)NC(=O)CNC(=O)[C@H](CC(N)=O)NC(=O)[C@@H](N)CCCNC(=N)N)C(=O)N[C@@H](CC(=O)O)C(=O)NCC(=O)N[C@@H](CCC(N)=O)C(=O)N[C@@H](CCCNC(=N)N)C(=O)NCC(=O)N[C@@H](CCCCN)C(=O)N[C@@H](CS)C(=O)N[C@@H](Cc1c[nH]c2ccccc12)C(=O)O [IM4] (H-RNGNFHPKQCHPALDGQRGKCW-OH; N-terminus and C-terminus assumed) | – | – | – | – | – | – | – | – | 105 | 125±26 | 144±44 | – |

| Compound | fluorescence [1] | Percent Flowthrough [2] [%] | Percent retained [2] [%] | relative fluorescence, FITC-PI(4,5)P2 bound ([3]; cold PPI: 3,4,5-P3, calcium) | relative fluorescence, FITC-PI(4,5)P2 bound ([3]; cold PPI: 3,4-P2, calcium) | relative fluorescence, FITC-PI(4,5)P2 bound ([3]; cold PPI: 3,5-P2, calcium) | relative fluorescence, FITC-PI(4,5)P2 bound ([3]; cold PPI: 3-P1, calcium) | relative fluorescence, FITC-PI(4,5)P2 bound ([3]; cold PPI: 4,5-P2, calcium) | relative fluorescence, FITC-PI(4,5)P2 bound ([3]; cold PPI: 4-P1, calcium) | relative fluorescence, FITC-PI(4,5)P2 bound ([3]; cold PPI: 5-P1, calcium) | relative fluorescence, FITC-PI(4,5)P2 bound [3, 7] | COL1 immunoreactivity in supernatant [4] | fluorescence of labeled IM3 with competing peptide [5] | fluorescence of labeled IM3AVD with competing peptide [6] | fluorescence of the highest binder ([3]; FITC-PI(4,5)P2 + cold PI(3,5)P2, calcium) |
| --- | --- | --- | --- | --- | --- | --- | --- | --- | --- | --- | --- | --- | --- | --- | --- |
| N=C(N)NCCC[C@H](NC(=O)CNC(=O)[C@H](CCCCN)NC(=O)[C@H](CO)NC(=O)[C@@H]1CCCN1C(=O)[C@H](CCCNC(=N)N)NC(=O)[C@H](CS)NC(=O)[C@H](CCC(N)=O)NC(=O)[C@H](CCCCN)NC(=O)[C@H](CCCCN)NC(=O)[C@H](CCCCN)NC(=O)[C@H](Cc1ccc(O)cc1)NC(=O)[C@H](Cc1ccccc1)NC(=O)CNC(=O)[C@H](CCCCN)NC(=O)[C@@H](N)CCCCN)C(=O)N[C@@H](CCCCN)C(=O)N[C@@H](CCCNC(=N)N)C(=O)NCC(=O)N[C@@H](Cc1ccccc1)C(=O)N[C@@H](CS)C(=O)N[C@@H](Cc1c[nH]c2ccccc12)C(=O)O [IM3] (H-KKGFYKKKQCRPSKGRKRGFCW-OH; N-terminus and C-terminus assumed) | 6,572±129 | 2.3 | 97.7 | 3.2 percentage of the highest binder | 51.5 percentage of the highest binder | 100.0 percentage of the highest binder | 1.7 percentage of the highest binder | 63.7 percentage of the highest binder | 6.3 percentage of the highest binder | 10.4 percentage of the highest binder | 2.2 percentage of the highest binder | 101 | 63±27 | 35±16 | 2,496 fluorescence units |
